The values that follow come from US20210122730A1, “GLUCOCORTICOID RECEPTOR MODULATORS” (ORIC Pharmaceuticals, Inc., priority 2017, published 2021).

The target in one data set is T1, GR (Homo sapiens, UniProt P04150).
T1 construct: expressed in transfected cells; host or cells: CHO-K1
T1 sequence (P04150 1-777): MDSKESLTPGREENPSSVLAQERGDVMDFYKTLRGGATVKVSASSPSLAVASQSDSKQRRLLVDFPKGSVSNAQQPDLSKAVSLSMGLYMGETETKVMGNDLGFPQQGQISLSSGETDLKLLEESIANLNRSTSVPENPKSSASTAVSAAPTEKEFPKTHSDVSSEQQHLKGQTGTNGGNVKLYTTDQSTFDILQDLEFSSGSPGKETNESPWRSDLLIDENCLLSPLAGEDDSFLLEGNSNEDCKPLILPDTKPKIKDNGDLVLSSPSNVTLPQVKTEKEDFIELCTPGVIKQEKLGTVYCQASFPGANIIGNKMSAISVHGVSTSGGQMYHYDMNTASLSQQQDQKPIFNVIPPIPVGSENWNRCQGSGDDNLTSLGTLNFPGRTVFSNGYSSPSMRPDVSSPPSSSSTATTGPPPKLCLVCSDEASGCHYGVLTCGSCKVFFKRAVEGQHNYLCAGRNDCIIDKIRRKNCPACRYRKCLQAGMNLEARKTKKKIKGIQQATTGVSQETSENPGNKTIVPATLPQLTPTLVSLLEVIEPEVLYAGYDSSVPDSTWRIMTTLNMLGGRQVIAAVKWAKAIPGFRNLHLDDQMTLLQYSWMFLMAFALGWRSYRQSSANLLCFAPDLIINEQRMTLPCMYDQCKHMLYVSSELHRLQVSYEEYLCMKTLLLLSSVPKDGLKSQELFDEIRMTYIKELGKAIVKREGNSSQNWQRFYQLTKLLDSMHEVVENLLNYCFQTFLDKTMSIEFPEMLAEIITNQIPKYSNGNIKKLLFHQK
As to the kind of experiment: In Vitro GR Luciferase Reporter Assay (antagonist mode, CHO-K1-GR-MMTV-Luc reporter cells). Type of data set: cell-based. Put shortly: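 CHO-K1-GR-MMTV-Luc cells in phenol red-free DMEM with 10% CSS, stimulated with 10 nM dexamethasone (final) and treated with 8-point 1:5 compound dilutions for about 18-24 h at 37° C. Luciferase measured by OneGlo luminescence; IC50 derived for inhibition of GR activity.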
In general terms: A reporter such as luciferase makes a cellular process visible.

Another data set has as its target T2, CYP2C8 (Homo sapiens, UniProt P10632).
T2 construct: Pooled human microsomes were obtained from Sekisui XenoTech, KS; tissue Sekisui XenoTech, KS; host or cells: pooled human liver microsomes
T2 sequence (P10632 1-490): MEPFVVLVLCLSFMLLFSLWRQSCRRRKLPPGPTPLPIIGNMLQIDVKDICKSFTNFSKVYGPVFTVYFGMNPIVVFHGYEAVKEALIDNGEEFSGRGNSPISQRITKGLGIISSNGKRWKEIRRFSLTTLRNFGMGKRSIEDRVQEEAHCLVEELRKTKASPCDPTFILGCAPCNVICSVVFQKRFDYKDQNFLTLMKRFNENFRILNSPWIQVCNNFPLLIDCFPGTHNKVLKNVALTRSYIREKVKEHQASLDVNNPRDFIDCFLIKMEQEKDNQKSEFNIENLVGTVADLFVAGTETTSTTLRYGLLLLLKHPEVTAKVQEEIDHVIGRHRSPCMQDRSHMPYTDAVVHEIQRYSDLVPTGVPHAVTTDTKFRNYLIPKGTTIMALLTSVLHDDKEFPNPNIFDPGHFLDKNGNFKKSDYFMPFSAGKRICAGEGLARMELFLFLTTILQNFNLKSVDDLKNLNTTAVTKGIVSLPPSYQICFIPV
In words: CYP Inhibition Assay (CYP2C8, human liver microsomes, paclitaxel substrate). Type of data set: in vitro ADME. The conditions noted are these: pH 7.4; pooled human liver microsomes 0.1 mg/mL, probe substrate paclitaxel. Here is the method:
Example B: CYP Inhibition Assay
Objective: To assess the % inhibition of test compounds against CYP2C8 enzyme in human liver microsomes.
Pooled human microsomes were obtained from Sekisui XenoTech, KS, and were used for in vitro assessment of compound inhibitory potential of the major drug metabolizing human CYP enzymes.
Test compounds were dissolved in DMSO as 10 mM stock solutions and diluted to 200 µM in acetonitrile as working solutions. The total concentrations of DMSO and acetonitrile were 0.02% and 0.5%, respectively, in the assay.
The assay was performed in duplicate in a 96-well plate. The reaction mixture ([…]) containing a final concentration of 0.1 mg/mL pooled human liver microsomes, 50 mM potassium phosphate, pH 7.4 buffer, was re-warmed at 37° C. for 5 minutes. The reaction was initiated with NADPH solution which was at 1 mM final concentration, and carried out for 5 minutes at 37° C. It was terminated by the addition of 3-fold volume of quench solution (1:1 acetonitrile:methanol with 0.1% formic acid and the internal standard of tolbutamide). The sample was vortexed, centrifuged at 4,000 rpm for 15 min at 4° C. The incubation in the presence of vehicle (0.02% DMSO and 0.5% acetonitrile) was used as the enzyme activity control. The analyses of metabolite 6α-hydroxypaclitaxel in supernatant was performed with LC-MS/MS method (Sciex API 4500 Qtrap coupled to a Shimadzu LC-20AD HPLC).
The CYP enzyme activity was determined based on the formation of 6a-hydroxypaclitaxel metabolite. The % inhibition was calculated using this equation: % Inhibition=100×(1−Ainactivator/Avehicle), where Ainactivator is the CYP enzyme activity in the presence of test compound, and Avehicle is the CYP activity in the presence of vehicle.
In general terms: Liver microsomes are vesicles of endoplasmic reticulum, rich in cytochrome P450 enzymes.

Where [1] appears, read: antagonist mode, 10 nM Dexamethasone.

`CN([C@H]1CCC2=Cc3c(cnn3-c3ccc(F)cc3)C[C@]2(C(=O)c2ccc(C(F)(F)F)cn2)C1)S(=O)(=O)c1cnn(C)n1` [Example 104, N-((4aS,6S)-1-(4-fluorophenyl)-4a-(5-(trifluoromethyl)picolinoyl)-4,4a,5,6,7,8-hexahydro-1H-benzo[f]indazol-6-yl)-N,2-dimethyl-2H-1,2,3-triazole-4-sulfonamide]: the 50% inhibitory concentration (IC50) against GR (antagonist assay with 10 nM Dexamethasone, 18-24 hours) fell in the range of 100 to 1000 nM. On CYP2C8, this molecule gave an inhibition at 5 min of 50 to 75%.

At GR (setting [1]), `Cn1ccc(S(=O)(=O)[C@@]2(F)CCC3=Cc4c(cnn4-c4ccc(F)cc4)C[C@]3(C(=O)c3cc(C(F)(F)F)ccn3)C2)n1` [Example 114, ((4aS,6S)-6-Fluoro-1-(4-fluorophenyl)-6-((1-methyl-1H-pyrazol-3-yl)sulfonyl)-1,4,5,6,7,8-hexahydro-4aH-benzo[f]indazol-4a-yl)(4-(trifluoromethyl)pyridin-2-yl)methanone] registered an IC50 of at most 100 nM. The inhibition at 5 min on CYP2C8 is at most 25%.

On GR (setting [1]), `CN([C@H]1CCC2=Cc3c(cnn3-c3ccc(F)cc3)C[C@]2(C(=O)c2ncc(C(F)(F)F)s2)C1)S(=O)(=O)c1cnn(C)c1` [Example 131, N-((4aS,6S)-1-(4-fluorophenyl)-4a-(5-(trifluoromethyl)thiazole-2-carbonyl)-4,4a,5,6,7,8-hexahydro-1H-benzo[f]indazol-6-yl)-N,1-dimethyl-1H-pyrazole-4-sulfonamide] registered an IC50 of at most 100 nM. At CYP2C8, this molecule returned an inhibition at 5 min of 50 to 75%.

Molecule `CN([C@H]1CCC2=Cc3c(cnn3-c3ccc(F)cc3)C[C@]2(C(=O)c2ncc(C3CC3)s2)C1)S(=O)(=O)c1cnn(C)c1` [Example 134, N-((4aS,6S)-4a-(5-cyclopropylthiazole-2-carbonyl)-1-(4-fluorophenyl)-4,4a,5,6,7,8-hexahydro-1H-benzo[f]indazol-6-yl)-N,1-dimethyl-1H-pyrazole-4-sulfonamide] yielded a 50% inhibitory concentration (IC50) at GR (setting [1]) of at most 100 nM. This molecule also yielded an inhibition at 5 min on CYP2C8 of 75 to 90%.

As to `CN([C@H]1CCC2=Cc3c(cnn3-c3ccc(F)cc3)C[C@]2(C(=O)c2ncc(C3CC3)s2)C1)S(=O)(=O)c1ccn(C)n1` [Example 140, N-((4aS,6S)-4a-(5-cyclopropylthiazole-2-carbonyl)-1-(4-fluorophenyl)-4,4a,5,6,7,8-hexahydro-1H-benzo[f]indazol-6-yl)-N,1-dimethyl-1H-pyrazole-3-sulfonamide], the IC50 on GR (setting [1]) is at most 100 nM. Also, the inhibition at 5 min at CYP2C8 fell in the range of 75 to 90%.

For `Cn1ncc(S(=O)(=O)N(C2CC2)[C@H]2CCC3=Cc4c(cnn4-c4ccc(F)cc4)C[C@]3(C(=O)c3cc(C(F)(F)F)ccn3)C2)n1` [Example 142, N-cyclopropyl-N-((4aS,6S)-1-(4-fluorophenyl)-4a-(4-(trifluoromethyl)picolinoyl)-4,4a,5,6,7,8-hexahydro-1H-benzo[f]indazol-6-yl)-2-methyl-2H-1,2,3-triazole-4-sulfonamide], the concentration for half-maximal inhibition (IC50) against GR (setting [1]) is at most 100 nM. Besides, the inhibition at 5 min at CYP2C8 was in the range of 50 to 75%.

At GR (setting [1]), `CN([C@H]1CCC2=Cc3c(cnn3-c3ccc(F)cc3)C[C@]2(C(=O)c2ncc(C(F)(F)F)s2)C1)S(=O)(=O)c1ccn(C)n1` [Example 144, N-((4aS,6S)-1-(4-fluorophenyl)-4a-(5-(trifluoromethyl)thiazole-2-carbonyl)-4,4a,5,6,7,8-hexahydro-1H-benzo[f]indazol-6-yl)-N,1-dimethyl-1H-pyrazole-3-sulfonamide] displayed a 50% inhibitory concentration (IC50) of at most 100 nM. For the same molecule, on CYP2C8, the inhibition at 5 min lay within 75 to 90%.

`CCN([C@H]1CCC2=Cc3c(cnn3-c3ccc(F)cc3)C[C@]2(C(=O)c2ncc(C(F)(F)F)s2)C1)S(=O)(=O)c1cnn(C)c1` [Example 153, N-ethyl-N-((4aS,6S)-1-(4-fluorophenyl)-4a-(5-(trifluoromethyl)thiazole-2-carbonyl)-4,4a,5,6,7,8-hexahydro-1H-benzo[f]indazol-6-yl)-1-methyl-1H-pyrazole-4-sulfonamide]: at GR (setting [1]), the half-inhibitory concentration (IC50) is at most 100 nM. Besides, on CYP2C8, the inhibition at 5 min lay in the range of 50 to 75%.

For orientation: IC50 means the concentration at which inhibition is half-maximal. High values mean lower potency, low ones higher potency. The inhibition is how much of the control response was suppressed. Low readings indicate a response near the control, high ones a response far below the control.
